Data from US20040082602A1, “Substituted thiophene carboxamide compounds for the treatment of inflammation” (priority 2002, published 2004).
Structures can show the parent of a compound that is named as a salt.

Target: T1, IKK-2 (Homo sapiens, UniProt O14920)
T1 construct: made in house; host or cells: baculovirus (pFastBac) in insect cells; SF9
T1 sequence (O14920 1-756): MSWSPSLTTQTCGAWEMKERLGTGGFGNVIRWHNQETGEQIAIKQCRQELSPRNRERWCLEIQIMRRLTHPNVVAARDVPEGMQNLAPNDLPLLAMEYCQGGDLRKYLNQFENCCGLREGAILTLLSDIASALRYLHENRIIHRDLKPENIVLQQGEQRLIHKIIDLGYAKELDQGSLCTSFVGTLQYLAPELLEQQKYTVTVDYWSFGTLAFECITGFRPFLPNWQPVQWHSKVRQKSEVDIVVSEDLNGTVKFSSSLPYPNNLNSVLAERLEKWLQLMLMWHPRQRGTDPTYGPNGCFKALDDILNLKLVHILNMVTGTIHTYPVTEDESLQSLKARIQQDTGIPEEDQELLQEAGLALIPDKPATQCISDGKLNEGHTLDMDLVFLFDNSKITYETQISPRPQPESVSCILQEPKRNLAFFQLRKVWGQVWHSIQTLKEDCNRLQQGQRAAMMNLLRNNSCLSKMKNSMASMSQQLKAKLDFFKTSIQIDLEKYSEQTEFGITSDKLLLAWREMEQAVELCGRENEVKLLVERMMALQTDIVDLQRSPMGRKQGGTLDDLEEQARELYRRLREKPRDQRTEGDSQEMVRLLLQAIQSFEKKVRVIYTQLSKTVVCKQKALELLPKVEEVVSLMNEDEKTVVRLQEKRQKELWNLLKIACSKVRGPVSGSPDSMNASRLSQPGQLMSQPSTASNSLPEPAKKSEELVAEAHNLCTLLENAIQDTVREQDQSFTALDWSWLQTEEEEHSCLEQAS
Assay: IKK-2 Resin assay (IKKβ Resin Enzyme Assay)
Assay type: biochemical
Conditions: rhIKK2 homodimer, 5 μM biotinylated IκBα peptide, 1 μM ATP, 25° C., 30 min
From the text: cDNAs of human IKK1 and IKK2 were amplified by reverse transcriptase-polymerase chain reaction from human placental RNA (Clonetech). hIKK1 was subcloned into pFastBac HTa (Life Technologies) and expressed as N-terminal His6-tagged fusion protein. The hIKK2 cDNA was amplified using a reverse oligonucleotide primer which incorporated the peptide sequence for a FLAG-epitope tag at the C-terminus of the IKK2 coding region (DYKDDDDKD). The hIKK2:FLAG cDNA was subcloned into the baculovirus vector pFastBac. The rhIKK2 ([…]) mutant was constructed in the same vector used for wild type rhIKK2 using a QuikChange™ mutagenesis kit (Stratagene). Viral stocks of each construct were used to infect insect cells grown in 40L suspension culture. […] Cell lysates were stored at −80° C. until purification of the recombinant proteins was undertaken as described below.
A 10-liter culture of baculovirus-expressing IKK2 tagged with FLAG peptide was centrifuged and the cell pellet (MOI=0.1 and 1=72 hrs) was re-suspended in buffer A. These cells were microfluidized, and centrifuged at 100,000×g for 45 min. Supernatant was passed over a G-25 column equilibrated with Buffer A. Protein peak was collected and incubated with anti-FLAG affinity resin on a rotator overnight in buffer B. The resin was washed in batch with 10-15 bed volumes of buffer C. Washed resin was poured into a column and rhIKK2 homodimer was eluted using 5 bed volumes of buffer B containing FLAG peptide. 5 mM DTT, 0.1% NP-40 and BSA (concentrated to 0.1% in final amount) was added to the eluted enzyme before concentrating in using an Amicon membrane with a molecular weight cut-off of 30 kDa. Enzyme was aliquoted and stored at −80° C.
IKKβ kinase activity was measured using a biotinylated IκBα peptide (Gly-LeuLys-Lys-Glu-Arg-Leu-Leu-Asp-Asp-Arg-His-Asp-Ser32-Gly-Leu-Asp-Ser36-Met Lys-Asp-Glu-Glu) (American Peptide Co.). 20 ul of the standard reaction mixture contained 5 μM biotinylated IκBα peptide, 0.1 μCi/reaction [γ^33P] ATP (Amersham) (about 1×10^5 cpm), 1 μM ATP (Sigma), 1 mM DTT (Sigma), 2 mM MgCl2 (Sigma), 2 mM MnCl2 (Sigma), 10 mM NaF (Sigma), 25 mM Hepes (Sigma) buffer, pH 7.6 and 20 μl enzyme solution and 10 ul inhibitor in a final volume of […]. After incubation at 25° C. for 30 min, 150 μl resin (Dowex anion-exchange resin AGIX8 200-400 mesh) in 900 mM formate, pH 3.0 was added to each well to stop the reaction. Resin was allowed to settle for one hour and 50 ul of supernatant was removed to a Micolite-2 flat bottom plate (Dynex). 150 μl of scintillation fluid (Microscint 40) (Packard) was added to each well. Incorporation of [γ-^33P] ATP was measured using a Top-Count NXT (Packard).

`NC(=O)c1sc2c(c1N)CCc1ccccc1-2` [Example 1, 3-amino-4,5-dihydronaphtho[1,2-b]thiophene-2-carboxamide] and `NC(=O)Nc1c(C(N)=O)sc2c1CCc1ccccc1-2` [Example 5, 3-[(aminocarbonyl)amino]4,5-dihydronaphtho[1,2-b]thiophene-2-carboxamide] fall in the same range of IC50: 10 to 20 µM for the first, 10 to 20 µM for the second.

Compared with `COc1ccc2c(c1)-c1sc(C(N)=O)c(N)c1CC2` [Example 2, 3-amino-8-methoxy-4,5-dihydronaphtho[1,2-b]thiophene-2-carboxamide], `NCCCNc1c(C(N)=O)sc2c1CCc1ccccc1-2` [Example 4, 3-[(3-aminopropyl)amino]-4,5-dihydronaphtho[1,2-b]thiophene-2-carboxamide hydrochloride] is higher in IC50: 1 to 10 µM for the first, 10 to 20 µM for the second.

First: NCCNc1c(C(N)=O)sc2c1CCc1ccccc1-2 [Example 3, 3-[(2-aminoethyl)amino]-4,5-dihydronaphtho[1,2-b]thiophene-2-carboxamide hydrobromide]
Second: CC(=O)Nc1sc2c(c1C(N)=O)CCc1ccccc1-2 [Example 7, 2-(acetylamino)-4,5-dihydronaphtho[1,2-b]thiophene-3-carboxamide]
The IC50 of the first is lower: 1 to 10 µM for the first, 10 to 20 µM for the second. The first is the more potent here.

First: N#Cc1c(N)sc2c1CCc1ccccc1-2 [Example 6, 2-amino-4,5-dihydronaphtho[1,2-b]thiophene-3-carbonitrile]
Second: NC(=O)Nc1sc2c(c1C(N)=O)CCc1ccccc1-2 [Example 8, 2-[(aminocarbonyl)amino]-4,5-dihydronaphtho[1,2-b]thiophene-3-carboxamide]
The IC50 of the first is higher: 10 to 20 µM for the first, ≤ 1 µM for the second.
